Entries after “also recorded” stand apart in the source; their conditions may differ.

The test system of assay [1] is ischemic/reperfused myocardium. The experiment in a line: In vivo phage homing to ischemia-reperfusion injured heart (phage per gram heart / phage per gram brain). To be noted: for Homing to ischemic/reperfused myocardium (in words) / Enrichment (relative enrichment compared with insertless phage): individual phage; for Homing to ischemic/reperfused myocardium (in words): ischemia-reperfusion injured animals; for Enrichment (relative enrichment compared with insertless phage): Targeted tissue Ischemic Heart. Further details: species or system mice.
Description: Individual phage obtained from screening in ischemic-reperfused hearts were injected at 5×10^9 TU intravenously into normal animals (open squares) or animals subject to 30 minutes myocardial ischemia by occlusion of the left anterior descending (LAD) coronary artery followed by 30 minutes reperfusion (closed circles). Phage were allowed to circulate for 5 minutes prior to perfusion of the vasculature and harvesting of the heart and brain. The number of phage recovered from the heart (per gram) was normalized by the number of phage recovered from the brain (per gram). […] The data shown are-the logarithmic means and logarithmic standard errors of the multiple experiments.
The number of phage recovered from the heart (per gram) was normalized by the number of phage recovered from the brain (per gram). The data shown are the logarithmic means and logarithmic standard errors for six to seven individual experiments.
(§1) All data were calculated as the ratio of the number of phage obtained per gram of heart tissue to the number of phage obtained per gram of brain tissue. Means, standard deviations, standard errors and parametric statistics were based on the assumption that this ratio is derived from a log-normal distribution.
Ischemia-reperfusion was performed as follows using large male CD-1 mice weighing about 40 grams to facilitate the surgical protocol. Briefly, mice were anesthetized by an intramuscular injection of a mixture of xylazine (50 mg/kg) and ketamine (50 mg/kg) and subsequently intubated with an endotracheal tube and ventilated with a mixture of oxygen and room air using a Harvard Apparatus (0.05 ml; 100 bpm). The heart was exposed with a left thoracotomy, and a 7-0 suture was placed under the left anterior descending (LAD) coronary artery; the vessel was occluded by tying a knot over a small piece of polyethylene tubing (PE50). Ischemia was confirmed by cyanosis of the myocardium. After 30 minutes of occlusion, the knot was cut and blood flow restored to the region. Reperfusion was allowed to proceed for 30 minutes before phage targeting to allow for some vascular changes while limiting neutrophil recruitment to the area.

The subject of another assay is normal heart. Kind of assay: In vivo phage homing to normal heart (phage per gram heart / phage per gram brain). On the set-up: species or system mice. To be noted: for Homing to normal heart (in words) / Enrichment (relative enrichment compared with insertless phage): individual phage; for Homing to normal heart (in words): normal animals; for Enrichment (relative enrichment compared with insertless phage): Targeted tissue Normal Heart, n=6 or 7 animals; for Enrichment in normal heart as compared to brain: normal heart versus control brain tissue, phage expressing the peptide.

In the next assay the test system is ischemic left ventricle. Kind of assay: Phage recovered from injured left ventricle versus right ventricle and septum, ischemic hearts. It is filed as in vivo, mice. To be noted: animals after myocardial ischemia-reperfusion. Here is the method: The number of phage recovered from the left ventricle (g^−1) was normalized by the number of phage recovered from the right ventricle and septum (g^−1). The overall data shown are a logarithmic mean and logarithmic standard deviation for 47 normal and 35 ischemic hearts. The data for phage bearing SEQ ID NO: 10 (R13) are for six individual animals each.
Ischemia-reperfusion was performed as follows using large male CD-1 mice weighing about 40 grams to facilitate the surgical protocol. Briefly, mice were anesthetized by an intramuscular injection of a mixture of xylazine (50 mg/kg) and ketamine (50 mg/kg) and subsequently intubated with an endotracheal tube and ventilated with a mixture of oxygen and room air using a Harvard Apparatus (0.05 ml; 100 bpm). The heart was exposed with a left thoracotomy, and a 7-0 suture was placed under the left anterior descending (LAD) coronary artery; the vessel was occluded by tying a knot over a small piece of polyethylene tubing (PE50). Ischemia was confirmed by cyanosis of the myocardium. […]
As a further test of specificity for homing to ischemic heart, phage homing to the injured left ventricle was compared to homing to the normal right ventricle and septum. […] When the ratio of phage accumulation in the left ventricle only is calculated relative to accumulation in the brain, the preferential accumulation of […] […]

Description for normal heart: Individual phage (5×10^9 TU) were injected intravenously and allowed to circulate for 5 minutes prior to perfusion of the vasculature and harvesting of the heart and brain. The number of phage recovered from the heart (per gram) was normalized by the number of phage recovered from the brain (per gram). Fd-tet was a phage without any additional peptide insert. […] The data shown are the logarithmic means and logarithmic standard errors of the multiple experiments.
In vivo panning was performed to identify phage that selectively home to normal coronary endothelium by injection of phage libraries and isolation of individual phage from the heart as follows. […] Both linear (X7 (SEQ ID NO: 1)) and cyclic (CX7C (SEQ ID NO: 13), CX9C (SEQ ID NO: 14), and CX11C (SEQ ID NO: 15)) libraries were used, where “C” indicates cysteine and “XN” indicates the given number of individually selected amino acids.
Libraries were administered independently with the initial titer of the various libraries. In vivo phage selection was performed as described in Pasqualini and Ruoslahti, Nature 380:364–366 (1996), with a few modifications. In both normal and ischemic targeting, 2.5×10^8 transducing units of the initial phage libraries were injected intravenously into the jugular vein. After 5 minutes of phage circulation in vivo, the heart was arrested by intraventricular injection of a hyperkalemic (30 mM KCl), hypothermic solution of DMEM, and the vasculature cleared of blood by perfusion with 5–10 ml of hyperkalemic DMEM through a left ventricular cannula. After the heart and brain were harvested, homogenized and weighed, phage were rescued by infection with K91 Kan bacteria. For the second and third rounds of selection, 200 normal or 100 ischemic clones were picked from the previous round and individually grown to saturation. Cultures were then pooled, phage particles purified and 10^10 TU of a pool reinjected into similarly treated mice.
as §1

Turning to “RPGRLNG (phage displayed) [SEQ ID NO: 8]”, the “Homing to ischemic/reperfused myocardium (in words)” value in assay [1] was “did not change”. The “Homing to normal heart (in words)” value with normal heart was “did not home to normal heart; also recorded: clearly did not target the normal myocardium”.

On to “CLHRGNSC (phage displayed) [SEQ ID NO: 9]”, for which the figures for the “Enrichment (relative enrichment compared with insertless phage)” value (in assay [1]; in the assay on normal heart; with normal heart (listed as 9)) were roughly 2 fold, roughly 2 fold and 2-fold, respectively. Besides, in the assay with normal heart, the “Enrichment in normal heart as compared to brain” value (shortened to “Enrichment … compared to brain”) is listed as “at least two-fold”.

Regarding “GGGVFWQ (phage displayed) [SEQ ID NO: 2]”, the “Homing to ischemic/reperfused myocardium (in words)” value in assay [1] is “remained enriched”. In the assay with normal heart, the “Enrichment (relative enrichment compared with insertless phage)” value is on record as roughly 5 fold and the “Homing to normal heart (in words)” value is on record as “binds to normal heart; also recorded: strongly targeted the normal myocardium”. For the same substance, the “Enrichment (relative enrichment compared with insertless phage)” value in the assay with normal heart (listed as 2) is listed as 5-fold.

For “VVLVTSS (phage displayed) [SEQ ID NO: 4]”, in the assay on normal heart, the “Enrichment (relative enrichment compared with insertless phage)” value was roughly 2 fold and the “Enrichment … compared to brain” value is on record as “at least two-fold”. Besides, in the assay with normal heart (listed as 4), the “Enrichment (relative enrichment compared with insertless phage)” value was 2-fold.

On to “HGRVRPH (phage displayed) [SEQ ID NO: 3]”, for which, in the assay on normal heart, the “Enrichment (relative enrichment compared with insertless phage)” value was roughly 2 fold and the “Enrichment … compared to brain” value was “at least two-fold”. Moreover, the “Enrichment (relative enrichment compared with insertless phage)” value in the assay with normal heart (listed as 3) is 2-fold.

On to “CRSWNKADNRSC (phage displayed) [SEQ ID NO: 10]”, for which the “Preferential homing to the ischemic left ventricle versus right ventricle (in words)” value in the assay on ischemic left ventricle is listed as “more phage were recovered from the injured left ventricle than the right ventricle; also recorded: preferentially homed to the ischemic left ventricle as compared to the uninjured right ventricle”. The “Enrichment (relative enrichment compared with insertless phage)” value in assay [1] was 5 fold; in assay [1] (listed as 10) it was 5-fold. Moreover, in assay [1] (ischemia-reperfusion injured hearts, left ventricle only), the “Phage accumulation in the left ventricle only relative to accumulation in the brain” value was determined as 7 fold. Also, the “Homing to normal heart (in words)” value with normal heart is “did not target the normal heart”.

(Values after patent US7144860B2, “Heart homing conjugates” (priority 1999, dated 2006).)
